Measured values from patent US12384776B2, “Compounds and uses thereof” (Foghorn Therapeutics Inc., priority 2019, dated 2025).

Target: Nanoluciferase-BRD9 fusion protein (3×FLAG-NLuc-BRD9) in SYO-1 cells (Homo sapiens (Human), UniProt Q9H8M2)
Assay: SYO1 BRD9 NanoLuc degradation assay
Format: cell-based
Details: SYO-1 cells expressing 3×FLAG-NLuc-BRD9, 6 hours incubation, top dose 1 μM
In short: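 Stable SYO-1 line expressing 3×FLAG-NLuc-BRD9, treated with 10-point 3-fold dilutions (top 1 μM final) for 6 hours. Nanoluciferase luminescence read with Nano-Glo reagent. % inhibition relative to DMSO (high control) and 1 μM reference BRD9 degrader (low control).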

Sequence of Nanoluciferase-BRD9 fusion protein (3×FLAG-NLuc-BRD9) in SYO-1 cells (Q9H8M2 whole entry, the tested form may be a part): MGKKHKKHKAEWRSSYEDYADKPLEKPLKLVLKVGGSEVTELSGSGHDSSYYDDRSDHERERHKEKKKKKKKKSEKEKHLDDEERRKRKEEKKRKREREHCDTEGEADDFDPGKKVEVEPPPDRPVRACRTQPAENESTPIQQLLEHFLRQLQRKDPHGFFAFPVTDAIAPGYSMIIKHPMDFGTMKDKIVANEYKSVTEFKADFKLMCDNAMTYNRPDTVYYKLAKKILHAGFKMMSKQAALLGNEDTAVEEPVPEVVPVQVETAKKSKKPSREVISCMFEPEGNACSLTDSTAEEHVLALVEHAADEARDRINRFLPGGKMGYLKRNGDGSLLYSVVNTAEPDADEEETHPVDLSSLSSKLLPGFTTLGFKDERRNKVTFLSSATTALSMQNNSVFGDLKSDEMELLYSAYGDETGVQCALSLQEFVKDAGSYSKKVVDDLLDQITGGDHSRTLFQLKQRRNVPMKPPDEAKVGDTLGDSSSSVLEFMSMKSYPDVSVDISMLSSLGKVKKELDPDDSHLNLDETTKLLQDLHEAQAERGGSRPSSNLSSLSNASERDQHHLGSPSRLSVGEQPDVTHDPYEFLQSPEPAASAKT

Compound	IC50
COc1cc(-c2cn(C)c(=O)c3c2CCN(C(=O)NCC2CC4CN(CCCCN5CCN(c6ccc7c(c6)C(=O)N(C6CCC(=O)NC6=O)C7=O)CC5)CC4C2)C3)cc(OC)c1CN(C)C (stereo not shown) [Compound D232]	10 to 100 nM
COc1cc(-c2cn(C)c(=O)c3c2CCN(C(=O)NCC2CC4(CCN(CCCOc5ccc6c(c5)C(=O)N(C5CCC(=O)NC5=O)C6=O)CC4)CO2)C3)cc(OC)c1CN(C)C (stereo not shown) [Compound D233]	100 to 1000 nM
COc1cc(-c2cn(C)c(=O)c3c2CCN(C(=O)NCCCN2CCC4CCN(c5ccc6c(c5)C(=O)N(C5CCC(=O)NC5=O)C6=O)C4C2)C3)cc(OC)c1CN(C)C (stereo not shown) [Compound D234]	10 to 100 nM
COc1cc(-c2cn(C)c(=O)c3c2CCN(C(=O)NCC2CC4(CCN(CCCOc5ccc6c(c5)C(=O)N(C5CCC(=O)NC5=O)C6=O)CC4)C2)C3)cc(OC)c1CN(C)C (stereo not shown) [Compound D235]	100 to 1000 nM
COc1cc(-c2cn(C)c(=O)c3c2CCN(C(=O)NCCCN2CCC4(CC2)CCN(c2ccc5c(c2)C(=O)N(C2CCC(=O)NC2=O)C5=O)C4)C3)cc(OC)c1CN(C)C (stereo not shown) [Compound D236]	10 to 100 nM
COc1cc(-c2cn(C)c(=O)c3c2CCN(C(=O)NC2CCC24CCN(CCCOc2ccc5c(c2)C(=O)N(C2CCC(=O)NC2=O)C5=O)CC4)C3)cc(OC)c1CN(C)C (stereo not shown) [Compound D237]	≥ 1000 nM
COc1cc(-c2cn(C)c(=O)c3c2CCN(C(=O)NCCCN2CC4(CCN(c5ccc6c(c5)C(=O)N(C5CCC(=O)NC5=O)C6=O)CC4)C2)C3)cc(OC)c1CN(C)C (stereo not shown) [Compound D238]	10 to 100 nM
COc1cc(-c2cn(C)c(=O)c3c2CCN(C(=O)NCC2CC24CCN(CCCCN2CCN(c5ccc6c(c5)C(=O)N(C5CCC(=O)NC5=O)C6=O)CC2)CC4)C3)cc(OC)c1CN(C)C (stereo not shown) [Compound D240]	100 to 1000 nM
COc1cc(-c2cn(C)c(=O)c3c2CCN(C(=O)NCCCN2CC4(CCN4c4ccc5c(c4)C(=O)N(C4CCC(=O)NC4=O)C5=O)C2)C3)cc(OC)c1CN(C)C (stereo not shown) [Compound D241]	100 to 1000 nM
COc1cc(-c2cn(C)c(=O)c3c2CCN(C(=O)NCC2CC24CCN(CCCOc2ccc5c(c2)C(=O)N(C2CCC(=O)NC2=O)C5=O)CC4)C3)cc(OC)c1CN(C)C (stereo not shown) [Compound D242]	100 to 1000 nM
COc1cc(-c2cn(C)c(=O)c3c2CCN(C(=O)NC2CC4CC2CN4CCCCN2CCN(c4ccc5c(c4)C(=O)N(C4CCC(=O)NC4=O)C5=O)CC2)C3)cc(OC)c1CN(C)C (stereo not shown) [Compound D243]	≥ 1000 nM
COc1cc(-c2cn(C)c(=O)c3c2CCN(C(=O)NC2CCC4CN(CCCOc5ccc6c(c5)C(=O)N(C5CCC(=O)NC5=O)C6=O)CC42)C3)cc(OC)c1CN(C)C (stereo not shown) [Compound D244]	100 to 1000 nM
COc1cc(-c2cn(C)c(=O)c3c2CCN(C(=O)NC2CC4CN(CCCCN5CCN(c6ccc7c(c6)C(=O)N(C6CCC(=O)NC6=O)C7=O)CC5)CC4C2)C3)cc(OC)c1CN(C)C (stereo not shown) [Compound D245]	100 to 1000 nM
COc1cc(-c2cn(C)c(=O)c3c2CCN(C(=O)NCCCN2CCC4(CC2)CN(c2ccc5c(c2)C(=O)N(C2CCC(=O)NC2=O)C5=O)C4)C3)cc(OC)c1CN(C)C (stereo not shown) [Compound D246]	< 10 nM
COc1cc(-c2cn(C)c(=O)c3c2CCN(C(=O)NC2C[C@@H]4CN(CCCCN5CCN(c6ccc7c(c6)C(=O)N(C6CCC(=O)NC6=O)C7=O)CC5)C[C@H]24)C3)cc(OC)c1CN(C)C (stereo partly shown) [Compound D247]	100 to 1000 nM
COc1cc(-c2cn(C)c(=O)c3c2CCN(C(=O)NC2C[C@@H]4CN(CCCOc5ccc6c(c5)C(=O)N(C5CCC(=O)NC5=O)C6=O)C[C@H]24)C3)cc(OC)c1CN(C)C (stereo partly shown) [Compound D248]	≥ 1000 nM
COc1cc(-c2cn(C)c(=O)c3c2CCN(C(=O)NC2C[C@@H]4CN(CCOc5ccc6c(c5)C(=O)N(C5CCC(=O)NC5=O)C6=O)C[C@H]24)C3)cc(OC)c1CN(C)C (stereo partly shown) [Compound D249]	≥ 1000 nM
COc1cc(-c2cn(C)c(=O)c3c2CCN(C(=O)NC2CCC4(CCN(CCCOc5ccc6c(c5)C(=O)N(C5CCC(=O)NC5=O)C6=O)C4)C2)C3)cc(OC)c1CN(C)C (stereo not shown) [Compound D250]	100 to 1000 nM
CNC(=O)N1CCc2c(-c3cc(OC)c(CN4CCC(CCN5CCC6(CC5)CC(Oc5ccc7c(c5)C(=O)N(C5CCC(=O)NC5=O)C7=O)C6)CC4)c(OC)c3)cn(C)c(=O)c2C1 (stereo not shown) [Compound D251]	< 10 nM
COc1cc(-c2cn(C)c(=O)c3c2CCN(C(=O)NC2CC4(CCN(CCCOc5ccc6c(c5)C(=O)N(C5CCC(=O)NC5=O)C6=O)CC4)C2)C3)cc(OC)c1CN(C)C (stereo not shown) [Compound D252]	100 to 1000 nM
CNC(=O)N1CCc2c(-c3cc(OC)c(CN4CCC(CN5CCC6(CC5)CC(Oc5ccc7c(c5)C(=O)N(C5CCC(=O)NC5=O)C7=O)C6)CC4)c(OC)c3)cn(C)c(=O)c2C1 (stereo not shown) [Compound D253]	< 10 nM
CNC(=O)N1CCc2c(-c3cc(OC)c(CN4CCC(C(=O)N5CCC6(CC5)CC(Oc5ccc7c(c5)C(=O)N(C5CCC(=O)NC5=O)C7=O)C6)CC4)c(OC)c3)cn(C)c(=O)c2C1 (stereo not shown) [Compound D254]	< 10 nM
CNC(=O)N1CCc2c(-c3cc(OC)c(CN4CCC5(CC4)CC(N4CCN(c6ccc7c(c6)C(=O)N(C6CCC(=O)NC6=O)C7=O)CC4)C5)c(OC)c3)cn(C)c(=O)c2C1 (stereo not shown) [Compound D255]	< 10 nM
CNC(=O)N1CCc2c(-c3cc(OC)c(CN4CCC(CN5CCN(c6ccc7c(c6)C(=O)N(C6CCC(=O)NC6=O)C7=O)CC5)CC4)c(OC)c3)cn(C)c(=O)c2C1 (stereo not shown) [Compound D256]	< 10 nM
CNC(=O)N1CCc2c(-c3cc(OC)c(CN4CC(CCCN5CCN(c6ccc7c(c6)C(=O)N(C6CCC(=O)NC6=O)C7=O)CC5)C4)c(OC)c3)cn(C)c(=O)c2C1 (stereo not shown) [Compound D257]	≥ 1000 nM
CNC(=O)N1CCc2c(-c3cc(OC)c(CN4CC(CCN5CCN(c6ccc7c(c6)C(=O)N(C6CCC(=O)NC6=O)C7=O)CC5)C4)c(OC)c3)cn(C)c(=O)c2C1 (stereo not shown) [Compound D258]	100 to 1000 nM

Second part, the compound after the results:

IC50	Compound
10 to 100 nM	COc1cc(-c2cn(C)c(=O)c3c2CCN(C(=O)NCC2CC4(CCN(CCOc5ccc6c(c5)C(=O)N(C5CCC(=O)NC5=O)C6=O)CC4)CO2)C3)cc(OC)c1CN(C)C (stereo not shown) [Compound D259]
10 to 100 nM	COc1cc(-c2cn(C)c(=O)c3c2CCN(C(=O)NCCCN2CCC4C2CN4c2ccc4c(c2)C(=O)N(C2CCC(=O)NC2=O)C4=O)C3)cc(OC)c1CN(C)C (stereo not shown) [Compound D260]
10 to 100 nM	COc1cc(-c2cn(C)c(=O)c3c2CCN(C(=O)NCCCN2CCC4(CCN4c4ccc5c(c4)C(=O)N(C4CCC(=O)NC4=O)C5=O)C2)C3)cc(OC)c1CN(C)C (stereo not shown) [Compound D261]
100 to 1000 nM	COc1cc(-c2cn(C)c(=O)c3c2CCN(C(=O)NC2CC4(CCN(CCCOc5ccc6c(c5)C(=O)N(C5CCC(=O)NC5=O)C6=O)C4)C2)C3)cc(OC)c1CN(C)C (stereo not shown) [Compound D262]
100 to 1000 nM	COc1cc(-c2cn(C)c(=O)c3c2CCN(C(=O)NC2CC4(C2)CN(CCCOc2ccc5c(c2)C(=O)N(C2CCC(=O)NC2=O)C5=O)C4)C3)cc(OC)c1CN(C)C (stereo not shown) [Compound D263]
≥ 1000 nM	COc1cc(-c2cn(C)c(=O)c3c2CCN(C(=O)NC2CC4(C2)CN(CCOc2ccc5c(c2)C(=O)N(C2CCC(=O)NC2=O)C5=O)C4)C3)cc(OC)c1CN(C)C (stereo not shown) [Compound D264]
100 to 1000 nM	COc1cc(-c2cn(C)c(=O)c3c2CCN(C(=O)NCC2CC4CN(CCCOc5ccc6c(c5)C(=O)N(C5CCC(=O)NC5=O)C6=O)CC4C2)C3)cc(OC)c1CN(C)C (stereo not shown) [Compound D265]
10 to 100 nM	COc1cc(-c2cn(C)c(=O)c3c2CCN(C(=O)NCC2CC4CN(CCOc5ccc6c(c5)C(=O)N(C5CCC(=O)NC5=O)C6=O)CC4C2)C3)cc(OC)c1CN(C)C (stereo not shown) [Compound D266]
10 to 100 nM	COc1cc(-c2cn(C)c(=O)c3c2CCN(C(=O)NCC2CC4(CCN(CCOc5ccc6c(c5)C(=O)N(C5CCC(=O)NC5=O)C6=O)CC4)C2)C3)cc(OC)c1CN(C)C (stereo not shown) [Compound D267]
10 to 100 nM	COc1cc(-c2cn(C)c(=O)c3c2CCN(C(=O)NCC2CC4(C2)CN(CCOc2ccc5c(c2)C(=O)N(C2CCC(=O)NC2=O)C5=O)C4)C3)cc(OC)c1CN(C)C (stereo not shown) [Compound D268]
10 to 100 nM	COc1cc(-c2cn(C)c(=O)c3c2CCN(C(=O)NCC2CC24CCN(CCOc2ccc5c(c2)C(=O)N(C2CCC(=O)NC2=O)C5=O)CC4)C3)cc(OC)c1CN(C)C (stereo not shown) [Compound D269]
100 to 1000 nM	COc1cc(-c2cn(C)c(=O)c3c2CCN(C(=O)NC2CC4CC2CN4CCCOc2ccc4c(c2)C(=O)N(C2CCC(=O)NC2=O)C4=O)C3)cc(OC)c1CN(C)C (stereo not shown) [Compound D270]
10 to 100 nM	COc1cc(-c2cn(C)c(=O)c3c2CCN(C(=O)NC2CCC4CN(CCOc5ccc6c(c5)C(=O)N(C5CCC(=O)NC5=O)C6=O)CC42)C3)cc(OC)c1CN(C)C (stereo not shown) [Compound D271]
100 to 1000 nM	COc1cc(-c2cn(C)c(=O)c3c2CCN(C(=O)NC2CC4CN(CCOc5ccc6c(c5)C(=O)N(C5CCC(=O)NC5=O)C6=O)CC4C2)C3)cc(OC)c1CN(C)C (stereo not shown) [Compound D273]
100 to 1000 nM	COc1cc(-c2cn(C)c(=O)c3c2CCN(C(=O)NC2CC4CC2CN4CCOc2ccc4c(c2)C(=O)N(C2CCC(=O)NC2=O)C4=O)C3)cc(OC)c1CN(C)C (stereo not shown) [Compound D274]
10 to 100 nM	CNC(=O)N1CCc2c(-c3cc(OC)c(CN4CC(CC(=O)N5CCC6(CC5)CC(Oc5ccc7c(c5)C(=O)N(C5CCC(=O)NC5=O)C7=O)C6)C4)c(OC)c3)cn(C)c(=O)c2C1 (stereo not shown) [Compound D275]
10 to 100 nM	CNC(=O)N1CCc2c(-c3cc(OC)c(CN(C)C45CC(C(=O)NCCCCCOc6ccc7c(c6)C(=O)N(C6CCC(=O)NC6=O)C7=O)(C4)C5)c(OC)c3)cn(C)c(=O)c2C1 (stereo not shown) [Compound D276]
100 to 1000 nM	CNC(=O)N1CCc2c(-c3cc(OC)c(CN4CC(S(=O)(=O)NCCCOc5ccc6c(c5)C(=O)N(C5CCC(=O)NC5=O)C6=O)C4)c(OC)c3)cn(C)c(=O)c2C1 (stereo not shown) [Compound D277]
10 to 100 nM	CNC(=O)N1CCc2c(-c3cc(OC)c(CN4CC(S(=O)(=O)NCCCCOc5ccc6c(c5)C(=O)N(C5CCC(=O)NC5=O)C6=O)C4)c(OC)c3)cn(C)c(=O)c2C1 (stereo not shown) [Compound D278]
100 to 1000 nM	CNC(=O)N1CCc2c(-c3cc(OC)c(CN4CC(S(=O)(=O)NCCOc5ccc6c(c5)C(=O)N(C5CCC(=O)NC5=O)C6=O)C4)c(OC)c3)cn(C)c(=O)c2C1 (stereo not shown) [Compound D279]
